Measurements reported in patent US20250179066A1, “ZWITTERIONIC ANTIBACTERIAL COMPOUNDS” (Hoffmann-La Roche Inc., priority 2022, published 2025).
Structures can show the parent of a compound that is named as a salt. Where two headings read alike, the source gives them in different places.

System: Acinetobacter baumannii ATCC17961
Assay: Antimicrobial susceptibility testing: 90% growth inhibitory concentration (IC90) determination
Type: cell-based
Conditions: 90% growth inhibitory concentration against Acinetobacter baumannii ATCC17961, Iso-Sensitest broth, OD 600 nm over 16 h, read-out: ATCC 17961 IC90
Outline: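 Twofold serial dilutions (e.g. 10 to 0.0195 μM final) in Iso-Sensitest broth inoculated at ~5×10^5 CFU/mL, incubated at 35±2° C. OD600 read every minute for 16 h; IC90 is the concentration inhibiting 90% of growth during logarithmic phase.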

[1] = Acinetobacter baumannii, ATCC17961, 16 h

Row | Compound | IC90 [1] [nM] | IC90 [nM]
1 | Cn1c(-c2cn(-c3ccc4c(ccn4CC(N)=O)n3)nc2C(F)(F)F)cnc1C(=O)Nc1ccc(C(=O)N2CCN(C(=O)C3CC[N+](CC(=O)O)(CC4CNC4)CC3)CC2)c(Cl)c1 (stereo not drawn) [Example 199, cis-2-[4-[4-[4-[[5-[1-[1-(2-amino-2-keto-ethyl)pyrrolo[3,2-b]pyridin-5-yl]-3-(trifluoromethyl)pyrazol-4-yl]-1-methyl-imidazole-2-carbonyl]amino]-2-chloro-benzoyl]piperazine-1-carbonyl]-1-(azetidin-3-ylmethyl)piperidin-1-ium-1-yl]acetic acid. 1:1 2,2,2-trifluoroacetate] |  | 308
2 | Cn1c(-c2cn(-c3cc4[nH]c(C(=O)NCC(O)C(F)(F)F)cc4cn3)nc2C(F)(F)F)cnc1C(=O)Nc1ccc(C(=O)N2CCN(C(=O)[C@H]3CC[N@+](CC(=O)O)(CC4CNC4)CC3)CC2)c(Cl)c1 (stereo partly drawn) [Example 117, cis-2-[1-(azetidin-3-ylmethyl)-4-[4-[2-chloro-4-[[1-methyl-5-[1-[2-[(3,3,3-trifluoro-2-hydroxy-propyl)carbamoyl]-1H-pyrrolo[3,2-c]pyridin-6-yl]-3-(trifluoromethyl)pyrazol-4-yl]imidazole-2-carbonyl]amino]benzoyl]piperazine-1-carbonyl]piperidin-1-ium-1-yl]acetic acid. 1:1 2,2,2-trifluoroacetate] | 215 | 
3 | Cn1c(-c2cn(-c3ccc(N)cn3)nc2C(F)(F)F)cnc1C(=O)Nc1ccc(C(=O)N2CCN(C(=O)CCC[N+](CC(=O)O)(CC3CNC3)CC3CNC3)CC2)c(Cl)c1 [Example 50, [4-[4-[4-[[5-[1-(5-amino-2-pyridyl)-3-(trifluoromethyl)pyrazol-4-yl]-1-methyl-imidazole-2-carbonyl]amino]-2-chloro-benzoyl]piperazino]-4-keto-butyl]-bis(azetidin-3-ylmethyl)-(carboxymethyl)ammonium. 1:1 2,2,2-trifluoroacetic acid. 1:1 2,2,2-trifluoroacetate] | 520 | 
4 | cis-2-[4-[4-[4-[[5-[1-(4-Amino-2-fluoro-phenyl)-3-(difluoromethyl) pyrazol-4-yl]-1-methyl-imidazole-2-carbonyl]amino]-2-chloro-benzoyl]piperazine-1-carbonyl]-1-(azetidin-3-ylmethyl)piperidin-1-ium-1-yl]acetic Acid;2,2,2-trifluoroacetate [Example 128] |  | 358
5 | Cn1c(-c2cn(-c3ccc4[nH]c(CO)cc4n3)nc2C(F)(F)F)cnc1C(=O)Nc1ccc(C(=O)N2CCN(C(=O)N3CC[N+](CC(=O)O)(CC4CNC4)CC3)CC2)c(Cl)c1 [Example 144, 2-[1-(azetidin-3-ylmethyl)-4-[4-[2-chloro-4-[[1-methyl-5-[1-(2-methylol-1H-pyrrolo[3,2-b]pyridin-5-yl)-3-(trifluoromethyl)pyrazol-4-yl]imidazole-2-carbonyl]amino]benzoyl]piperazine-1-carbonyl]piperazin-1-ium-1-yl]acetic acid. 1:1 2,2,2-trifluoroacetate] | 269 | 

The next lines start with results.

Row | IC90 [1] [nM] | Compound | IC90 [nM]
6 | 213 | Cn1c(-c2cn(-c3cc4[nH]c(C(=O)N5CCNCC5)cc4cn3)nc2C(F)(F)F)cnc1C(=O)Nc1ccc(C(=O)N2CCN(C(=O)[C@H]3CC[N@+](CC(=O)O)(CC4CNC4)CC3)CC2)c(Cl)c1 [Example 118, cis-2-[1-(azetidin-3-ylmethyl)-4-[4-[2-chloro-4-[[1-methyl-5-[1-[2-(piperazine-1-carbonyl)-1H-pyrrolo[3,2-c]pyridin-6-yl]-3-(trifluoromethyl)pyrazol-4-yl]imidazole-2-carbonyl]amino]benzoyl]piperazine-1-carbonyl]piperidin-1-ium-1-yl]acetic acid. 1:1 2,2,2-trifluoroacetate] | 
7 | 400 | Cn1c(-c2cn(-c3cc4cc[nH]c4cn3)nc2C(F)(F)F)cnc1C(=O)Nc1ccc(C(=O)N2CCN(C(=O)[C@H]3CC[N@+](CC(=O)O)(CC4CNC4)CC3)CC2)c(Cl)c1 [Example 200, cis-2-[1-(azetidin-3-ylmethyl)-4-[4-[2-chloro-4-[[1-methyl-5-[1-(1H-pyrrolo[2,3-c]pyridin-5-yl)-3-(trifluoromethyl)pyrazol-4-yl]imidazole-2-carbonyl]amino]benzoyl]piperazine-1-carbonyl]piperidin-1-ium-1-yl]acetic acid. 1:1 2,2,2-trifluoroacetate] | 
8 | 560 | Cn1c(-c2cn(-c3cccc(N)n3)nc2C(F)(F)F)cnc1C(=O)Nc1ccc(C(=O)N2CCN(C(=O)C3CC[N+](CC(=O)O)(CC4CNC4)CC3)CC2)c(Cl)c1 (centres unmarked) [Example 56, 2-[4-[4-[4-[[5-[1-(6-amino-2-pyridyl)-3-(trifluoromethyl)pyrazol-4-yl]-1-methyl-imidazole-2-carbonyl]amino]-2-chloro-benzoyl]piperazine-1-carbonyl]-1-(azetidin-3-ylmethyl)piperidin-1-ium-1-yl]acetic acid. 1:1 2,2,2-trifluoroacetate] | 
9 | 156 | CNC(=O)c1c[nH]c2cc(-n3cc(-c4cnc(C(=O)Nc5ccc(C(=O)N6CCN(C(=O)[C@H]7CC[N@+](CC(=O)O)(CC8CNC8)CC7)CC6)c(Cl)c5)n4C)c(C(F)(F)F)n3)ncc12 [Example 156, cis-2-[1-(azetidin-3-ylmethyl)-4-[4-[2-chloro-4-[[1-methyl-5-[1-[3-(methylcarbamoyl)-1H-pyrrolo[3,2-c]pyridin-6-yl]-3-(trifluoromethyl)pyrazol-4-yl]imidazole-2-carbonyl]amino]benzoyl]piperazine-1-carbonyl]piperidin-1-ium-1-yl]acetic acid. 1:1 2,2,2-trifluoroacetate] | 
10 | 421 | Cc1cc(NC(=O)c2ncc(-c3cn(-c4ccc(N)cc4F)nc3C(F)(F)F)n2C)ccc1C(=O)N1CCN(C(=O)[C@H]2CC[N@+](CC(=O)O)(CC3CNC3)CC2)CC1 [Example 152, cis-2-[4-[4-[4-[[5-[1-(4-amino-2-fluoro-phenyl)-3-(trifluoromethyl)pyrazol-4-yl]-1-methyl-imidazole-2-carbonyl]amino]-2-methyl-benzoyl]piperazine-1-carbonyl]-1-(azetidin-3-ylmethyl)piperidin-1-ium-1-yl]acetic acid. 1:1 2,2,2-trifluoroacetate] | 
11 | 420 | COc1ccc(-n2cc(-c3cnc(C(=O)Nc4ccc(C(=O)N5CCN(C(=O)C6CC[N+](CC(=O)O)(CC7CNC7)CC6)CC5)c(Cl)c4)n3C)c(C(F)(F)F)n2)cc1 (centres unmarked) [Example 37, 2-[1-(azetidin-3-ylmethyl)-4-[4-[2-chloro-4-[[5-[1-(4-methoxyphenyl)-3-(trifluoromethyl)pyrazol-4-yl]-1-methyl-imidazole-2-carbonyl]amino]benzoyl]piperazine-1-carbonyl]piperidin-1-ium-1-yl]acetic acid. 1:1 formate] | 
